# Key:
# barnyardgrass [1] = experiment: Test A pre-/postemergence herbicide test; type: in vivo, Echinochloa crus-galli
# Outline: (§1)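 Seeds sown in sandy loam received a preemergence directed soil spray of compound in non-phytotoxic solvent with surfactant; postemergence plants (2–10 cm, one- to two-leaf stage) were sprayed to runoff at the same time. After ~10 days in greenhouse, injury was rated visually versus untreated controls (0 = no effect, 100 = complete control).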
# large crabgrass [2] = experiment: Test A pre-/postemergence herbicide test; type: in vivo, Digitaria sanguinalis
# Outline: as §1
# giant foxtail [3] = experiment: Test A pre-/postemergence herbicide test; type: in vivo, Setaria faberi
# Outline: as §1
# morningglory [4] = experiment: Test A pre-/postemergence herbicide test; type: in vivo, Ipomoea spp.
# Outline: as §1
# redroot pigweed = experiment: Test A pre-/postemergence herbicide test; type: in vivo, Amaranthus retroflexus
# Outline: as §1
# velvetleaf [5] = experiment: Test A pre-/postemergence herbicide test; type: in vivo, Abutilon theophrasti
# Outline: as §1
# barnyardgrass [6] = experiment: Test B pre-/postemergence herbicide test; type: in vivo, Echinochloa crus-galli; conditions: for Barnyardgrass plant response rating: postemergence
# Outline: (§2)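 Seeds were planted and treated preemergence with compounds formulated in a non-phytotoxic solvent mixture containing surfactant, while plants at the 1- to 4-leaf stage (2 to 18 cm) received postemergence sprays. Flooded paddy plants were grown to the 2-leaf stage. After 13 to 15 days in a greenhouse, injury was visually rated 0–100 against untreated controls.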
# Surinam grass = experiment: Test B pre-/postemergence herbicide test; type: in vivo, Urochloa decumbens; conditions: for Surinam Grass plant response rating: postemergence
# Outline: (§3)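 Formulation: non-phytotoxic solvent mix with surfactant. Timing: preemergence on seed and postemergence on 2–18 cm plants, applied concurrently. Readout after 13–15 d greenhouse: visual 0–100 control rating against controls.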
# cocklebur = experiment: Test B pre-/postemergence herbicide test; type: in vivo, Xanthium strumarium; conditions: for Cocklebur plant response rating: postemergence
# Outline: as §2
# corn = experiment: Test B pre-/postemergence herbicide test; type: in vivo, Zea mays; conditions: for Corn plant response rating: postemergence
# Outline: as §3
# large crabgrass [7] = experiment: Test B pre-/postemergence herbicide test; type: in vivo, Digitaria sanguinalis; conditions: for Crabgrass, Large plant response rating: postemergence
# Outline: as §3
# giant foxtail [8] = experiment: Test B pre-/postemergence herbicide test; type: in vivo, Setaria faberi; conditions: for Foxtail, Giant plant response rating: postemergence
# Outline: as §3
# lambsquarters = experiment: Test B pre-/postemergence herbicide test; type: in vivo, Chenopodium album; conditions: for Lambsquarters plant response rating: postemergence
# Outline: as §3
# morningglory [9] = experiment: Test B pre-/postemergence herbicide test; type: in vivo, Ipomoea coccinea; conditions: for Morningglory plant response rating: postemergence
# Outline: as §2
# pigweed = experiment: Test B pre-/postemergence herbicide test; type: in vivo, Amaranthus retroflexus; conditions: for Pigweed plant response rating: postemergence
# Outline: as §3
# velvetleaf [10] = experiment: Test B pre-/postemergence herbicide test; type: in vivo, Abutilon theophrasti; conditions: 100 is complete control
# Outline: as §3
# blackgrass = experiment: Test B postemergence herbicide test; type: in vivo, Alopecurus myosuroides; conditions: postemergence
# Outline: (§4)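 Postemergence plants were sprayed with formulated test chemicals at 2 to 18 cm height (1- to 4-leaf stage); paddy species were grown to the 2-leaf stage. After 13 to 15 days in a greenhouse, injury was rated visually against untreated controls on a 0–100 scale (0 = no effect, 100 = complete control).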
# wheat = experiment: Test B postemergence herbicide test; type: in vivo, Triticum aestivum; parameters: key to Wheat plant response rating: 0 = no effect, 100 = complete control; conditions: postemergence
# Outline: (§5)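 Scale 0–100: zero equals no visible effect, 100 complete control, judged by eye relative to controls. Timing: 13 to 15 days in greenhouse post-treatment. Growth stage at spraying: two leaves (paddy) or one to four leaves, 2–18 cm (postemergence).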
# wild oat = experiment: Test B postemergence herbicide test; type: in vivo, Avena fatua; conditions: postemergence
# Outline: as §5
# rice = experiment: Test B flooded paddy test; type: in vivo, Oryza sativa; conditions: 1000 g ai/ha, scale 0 to 100 (0 no effect, 100 complete control)
# Outline: as §5
# [11] = test system: small flower umbrella sedge; experiment: Test B flooded paddy test; type: in vivo, Cyperus difformis; conditions: 1000 g ai/ha, scale 0 to 100 (0 no effect, 100 complete control)
# Outline: as §4
# ducksalad = experiment: Test B flooded paddy test; type: in vivo, Heteranthera limosa; conditions: 1000 g ai/ha, scale 0 to 100 (0 no effect, 100 complete control)
# Outline: as §4
# barnyardgrass [12] = experiment: Test B flooded paddy test; type: in vivo, Echinochloa crus-galli; conditions: 1000 g ai/ha, scale 0 to 100 (0 no effect, 100 complete control)
# Outline: as §4
# [13] = Postemergence, 500 g ai/ha, 0 to 100 scale, 0 no effect, 100 complete control
# [14] = Postemergence, 2000 g ai/ha, 0 to 100 scale, 0 no effect, 100 complete control
# [15] = Preemergence, 2000 g ai/ha, visual rating, 0 to 100 scale (0 no effect, 100 complete control)
# [16] = preemergence, 500 g ai/ha, visual injury, 0 to 100 scale (0 no effect, 100 complete control)
# [17] = 125 g ai/ha, 0 is no effect, 100 is complete control, preemergence
# [18] = 125 g ai/ha, visual rating, scale 0 (no effect) to 100 (complete control)
# [19] = 500 g ai/ha, visual rating, 0 = no effect, 100 = complete control, preemergence
# [20] = 500 g ai/ha, scale 0 to 100, 0 is no effect, 100 is complete control
smiles,measurement,setting,value
CCc1nn(C2CCCC2)nc1C(=O)Nc1cccc(C(=O)N2CC=CC2)c1 [Compound 354],Barnyardgrass plant response rating,barnyardgrass [1]; [13],20
same,"Plant response rating, Barnyardgrass",barnyardgrass [1]; [14],70
same,Barnyardgrass plant response rating,barnyardgrass [1]; [15],55
same,Barnyardgrass plant response rating,barnyardgrass [1]; [16],0
same,"Crabgrass, Large plant response rating",large crabgrass [2]; [13],10
same,"Plant response rating, Crabgrass, Large",large crabgrass [2]; [14],20
same,"Crabgrass, Large plant response rating",large crabgrass [2]; [15],20
same,"Crabgrass, Large plant response rating",large crabgrass [2]; [16],10
same,"Foxtail, Giant plant response rating",giant foxtail [3]; [13],10
same,"Plant response rating, Foxtail, Giant",giant foxtail [3]; [14],50
same,"Foxtail, Giant plant response rating",giant foxtail [3]; [15],80
same,"Foxtail, Giant plant response rating",giant foxtail [3]; [16],15
same,Morningglory plant response rating,morningglory [4]; [13],20
same,"Plant response rating, Morningglory",morningglory [4]; [14],85
same,Morningglory plant response rating,morningglory [4]; [15],20
same,Morningglory plant response rating,morningglory [4]; [16],15
same,Pigweed plant response rating,redroot pigweed; [13],70
same,"Plant response rating, Pigweed",redroot pigweed; [14],80
same,Pigweed plant response rating,redroot pigweed; [15],70
same,Pigweed plant response rating,redroot pigweed; [16],60
same,Velvetleaf plant response rating,velvetleaf [5]; [13],50
same,"Plant response rating, Velvetleaf",velvetleaf [5]; [14],70
same,Velvetleaf plant response rating,velvetleaf [5]; [15],45
same,Velvetleaf plant response rating,velvetleaf [5]; [16],5
same,"Plant response rating (0 to 100 scale), Barnyardgrass",barnyardgrass [6]; [17],0
same,Barnyardgrass plant response rating,barnyardgrass [6]; [18],0
same,"Plant response rating, Barnyardgrass",barnyardgrass [6]; [19],60
same,Barnyardgrass plant response rating,barnyardgrass [6]; [20],0
same,"Plant response rating (0 to 100 scale), Surinam Grass",Surinam grass; [17],0
same,Surinam Grass plant response rating,Surinam grass; [18],0
same,"Plant response rating, Surinam Grass",Surinam grass; [19],20
same,Surinam Grass plant response rating,Surinam grass; [20],20
same,"Plant response rating (0 to 100 scale), Cocklebur",cocklebur; [17],0
same,Cocklebur plant response rating,cocklebur; [18],10
same,"Plant response rating, Cocklebur",cocklebur; [19],0
same,Cocklebur plant response rating,cocklebur; [20],20
same,"Plant response rating (0 to 100 scale), Corn",corn; [17],20
same,Corn plant response rating,corn; [18],0
same,"Plant response rating, Corn",corn; [19],20
same,Corn plant response rating,corn; [20],0
same,"Plant response rating (0 to 100 scale), Crabgrass, Large",large crabgrass [7]; [17],20
same,"Crabgrass, Large plant response rating",large crabgrass [7]; [18],0
same,"Plant response rating, Crabgrass, Large",large crabgrass [7]; [19],80
same,"Crabgrass, Large plant response rating",large crabgrass [7]; [20],10
same,"Plant response rating (0 to 100 scale), Foxtail, Giant",giant foxtail [8]; [17],10
same,"Foxtail, Giant plant response rating",giant foxtail [8]; [18],10
same,"Plant response rating, Foxtail, Giant",giant foxtail [8]; [19],70
same,"Foxtail, Giant plant response rating",giant foxtail [8]; [20],20
same,Lambsquarters plant response rating,lambsquarters; [18],10
same,"Plant response rating, Lambsquarters",lambsquarters; [19],100
same,Lambsquarters plant response rating,lambsquarters; [20],50
same,"Plant response rating (0 to 100 scale), Morningglory",morningglory [9]; [17],0
same,Morningglory plant response rating,morningglory [9]; [18],30
same,"Plant response rating, Morningglory",morningglory [9]; [19],0
same,Morningglory plant response rating,morningglory [9]; [20],60
same,"Plant response rating (0 to 100 scale), Pigweed",pigweed; [17],0
same,Pigweed plant response rating,pigweed; [18],40
same,"Plant response rating, Pigweed",pigweed; [19],90
same,Pigweed plant response rating,pigweed; [20],50
same,"Plant response rating (0 to 100 scale), Velvetleaf","velvetleaf [10]; 125 g ai/ha, 0 is no effect, preemergence",0
same,Velvetleaf plant response rating,"velvetleaf [10]; postemergence, 500 g ai/ha, scale 0 to 100, 0 is no effect",10
same,Blackgrass plant response rating,blackgrass; [18],10
same,Blackgrass plant response rating,blackgrass; [20],20
same,Wheat plant response rating,wheat; [18],0
same,Wheat plant response rating,wheat; [20],20
same,"Oat, Wild plant response rating",wild oat; [18],0
same,"Oat, Wild plant response rating",wild oat; [20],20
same,Rice plant response rating,rice,50
same,"Sedge, Umbrella plant response rating",[11],50
same,Ducksalad plant response rating,ducksalad,50
same,Barnyardgrass plant response rating,barnyardgrass [12],40
